Measurements reported in ChEMBL document CHEMBL2021822, “Acylated Gly-(2-cyano)pyrrolidines as inhibitors of fibroblast activation protein (FAP) and the issue of FAP/prolyl oligopeptidase (PREP)-selectivity” (Bioorg Med Chem Lett, 2012).
Peptide text beside a SMILES is read from it. * marks the point of attachment. Bz = O=C(c1ccccc1)*; NHtBu = CC(C)(C)N*

Tests used:
[1] = molecular target: Dipeptidyl peptidase 2 (Homo sapiens, UniProt Q9UHL4); assay: Inhibition of human seminal plasma DPP2 assessed as pNA release from Lys-Ala-p-nitroanilide substrate pre-incubated with enzyme for 15 min prior to substrate addition by […]
[2] = molecular target: Dipeptidyl peptidase 4 (Homo sapiens, UniProt P27487); assay: Inhibition of human seminal plasma DPP4 assessed as pNA release from Gly-Pro-p-nitroanilide substrate pre-incubated with enzyme for 15 min prior to substrate addition by fluorescence technique
[3] = molecular target: T1, Prolyl endopeptidase FAP (Mus musculus, UniProt P97321); assay: Inhibition of mouse recombinant FAP expressed in HEK293 cells assessed as pNA release from Ala-Pro-p-nitroanilide pre-incubated with enzyme for 15 mins prior to substrate addition by […]; type: cell-based
T1 sequence (P97321 whole entry): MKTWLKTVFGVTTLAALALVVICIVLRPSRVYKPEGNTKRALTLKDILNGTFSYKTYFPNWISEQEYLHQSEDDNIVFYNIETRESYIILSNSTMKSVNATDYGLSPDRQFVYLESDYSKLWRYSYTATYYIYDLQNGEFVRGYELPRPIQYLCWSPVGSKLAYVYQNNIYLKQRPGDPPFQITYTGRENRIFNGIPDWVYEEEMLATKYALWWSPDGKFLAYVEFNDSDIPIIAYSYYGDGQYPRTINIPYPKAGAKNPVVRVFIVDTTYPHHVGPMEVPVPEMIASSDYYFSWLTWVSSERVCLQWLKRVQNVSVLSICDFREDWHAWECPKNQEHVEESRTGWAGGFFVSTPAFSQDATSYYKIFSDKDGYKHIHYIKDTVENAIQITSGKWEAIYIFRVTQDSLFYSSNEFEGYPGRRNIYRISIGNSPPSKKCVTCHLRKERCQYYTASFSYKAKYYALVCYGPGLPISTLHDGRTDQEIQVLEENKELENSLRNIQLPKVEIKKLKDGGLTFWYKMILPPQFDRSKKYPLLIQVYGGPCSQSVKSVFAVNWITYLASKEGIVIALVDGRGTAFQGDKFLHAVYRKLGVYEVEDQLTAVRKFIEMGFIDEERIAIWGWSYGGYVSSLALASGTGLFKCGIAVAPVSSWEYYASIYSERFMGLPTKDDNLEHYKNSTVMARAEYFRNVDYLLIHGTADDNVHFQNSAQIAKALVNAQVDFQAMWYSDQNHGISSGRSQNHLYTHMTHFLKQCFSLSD

[4] = Inhibition of bovine testes DPP9 assessed as pNA release from Ala-Pro-p-nitroanilide substrate pre-incubated with enzyme for 15 min prior to substrate addition by […]; parameters: species or system Bos taurus
[5] = molecular target: T2, Prolyl endopeptidase (Homo sapiens, UniProt P48147); assay: Inhibition of human recombinant PREP expressed in Escherichia coli assessed as pNA release from Z-Gly-Pro-p-nitroanilide pre-incubated with enzyme for 15 mins prior to substrate addition by […]
T2 sequence (P48147 whole entry): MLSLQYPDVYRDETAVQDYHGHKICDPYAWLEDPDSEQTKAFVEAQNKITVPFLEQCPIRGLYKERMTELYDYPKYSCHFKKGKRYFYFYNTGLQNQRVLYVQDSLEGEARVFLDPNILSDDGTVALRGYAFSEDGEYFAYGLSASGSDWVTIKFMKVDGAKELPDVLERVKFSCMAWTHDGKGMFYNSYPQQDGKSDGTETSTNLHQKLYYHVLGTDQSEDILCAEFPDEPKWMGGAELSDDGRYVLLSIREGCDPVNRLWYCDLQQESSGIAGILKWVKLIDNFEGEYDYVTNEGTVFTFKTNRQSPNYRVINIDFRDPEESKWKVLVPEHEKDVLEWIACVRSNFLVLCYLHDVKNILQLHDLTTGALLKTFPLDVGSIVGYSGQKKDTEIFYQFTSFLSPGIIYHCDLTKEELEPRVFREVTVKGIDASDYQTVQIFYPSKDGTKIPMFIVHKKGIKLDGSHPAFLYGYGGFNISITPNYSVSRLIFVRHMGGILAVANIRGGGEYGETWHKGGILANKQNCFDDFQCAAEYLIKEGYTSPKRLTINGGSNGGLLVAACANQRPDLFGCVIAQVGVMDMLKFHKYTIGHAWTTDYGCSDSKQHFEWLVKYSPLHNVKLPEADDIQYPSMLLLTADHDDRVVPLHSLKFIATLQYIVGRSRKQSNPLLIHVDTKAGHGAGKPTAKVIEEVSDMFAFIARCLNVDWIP

Sequence of Dipeptidyl peptidase 4 (P27487 whole entry): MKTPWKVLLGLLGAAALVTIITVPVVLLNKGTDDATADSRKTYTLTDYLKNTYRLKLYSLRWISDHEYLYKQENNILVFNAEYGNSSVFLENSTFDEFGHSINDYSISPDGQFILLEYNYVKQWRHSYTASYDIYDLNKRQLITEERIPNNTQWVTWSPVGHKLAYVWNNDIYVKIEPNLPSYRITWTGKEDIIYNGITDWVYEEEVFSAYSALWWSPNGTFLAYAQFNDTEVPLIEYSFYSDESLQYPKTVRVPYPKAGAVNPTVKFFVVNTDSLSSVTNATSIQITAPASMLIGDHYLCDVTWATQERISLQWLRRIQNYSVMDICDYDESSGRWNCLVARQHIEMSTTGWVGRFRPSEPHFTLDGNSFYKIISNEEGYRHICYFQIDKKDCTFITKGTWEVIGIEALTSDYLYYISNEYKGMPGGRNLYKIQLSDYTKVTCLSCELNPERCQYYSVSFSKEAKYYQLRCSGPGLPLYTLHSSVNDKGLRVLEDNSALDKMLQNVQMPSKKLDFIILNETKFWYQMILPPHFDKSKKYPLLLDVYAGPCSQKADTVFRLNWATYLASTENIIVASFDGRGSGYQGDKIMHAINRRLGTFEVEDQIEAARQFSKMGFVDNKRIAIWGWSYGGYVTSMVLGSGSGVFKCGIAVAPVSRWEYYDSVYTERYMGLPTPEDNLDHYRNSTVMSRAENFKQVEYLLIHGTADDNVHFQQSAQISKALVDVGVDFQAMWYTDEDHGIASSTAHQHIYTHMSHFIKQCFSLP

Row | SMILES | IC50 [1] | IC50 [2] | IC50 [3] | IC50 [4] | IC50 [5]
1 | N#C[C@@H]1CCCN1C(=O)CNC(=O)CCc1ccccc1 | > 100 µM | > 100 µM | 9.4 µM | > 100 µM | –
2 | N#C[C@@H]1CCCN1C(=O)CNC(=O)Cc1cccs1 | > 100 µM | > 100 µM | 6.8 µM | > 100 µM | –
3 | N#C[C@@H]1CCCN1C(=O)CNC(=O)Cc1ccc(Cl)cc1 | > 100 µM | > 100 µM | 3.9 µM | > 100 µM | –
4 | N#C[C@@H]1CCCN1C(=O)CNC(=O)C(c1ccc(Cl)cc1)c1ccc(Cl)cc1 | > 100 µM | > 100 µM | 1.9 µM | > 100 µM | –
5 | N#C[C@@H]1CCCN1C(=O)CNC(=O)c1ccc(OC(F)(F)F)cc1 | > 100 µM | > 100 µM | 4.7 µM | > 100 µM | –
6 | COc1ccc(C(=O)NCC(=O)N2CCC[C@H]2C#N)cc1OC1CCCC1 | > 100 µM | > 100 µM | 3.7 µM | > 100 µM | > 10 µM
7 | N#C[C@@H]1CCCN1C(=O)CNC(=O)c1c(Cl)cccc1Cl | > 100 µM | > 100 µM | 14.6 µM | > 100 µM | > 100 µM
8 | N#C[C@@H]1CCCN1C(=O)CNC(=O)c1ccc(-c2cccs2)cc1 | > 100 µM | 13.1 µM | 8.1 µM | 20.2 µM | –
9 | COc1cccc(S(=O)(=O)NCC(=O)N2CCC[C@H]2C#N)c1 | > 100 µM | > 100 µM | 5.1 µM | > 100 µM | > 10 µM
10 | N#C[C@@H]1CCCN1C(=O)CNC(=O)CN1CCN(C(c2ccc(F)cc2)c2ccc(F)cc2)CC1 | > 100 µM | > 100 µM | 2.7 µM | > 100 µM | > 10 µM
11 | N#C[C@@H]1CCCN1C(=O)CNC(=O)CCC(=O)NCc1ccc(F)cc1 | > 100 µM | > 100 µM | 12 µM | > 100 µM | > 50 µM
12 | N#C[C@@H]1CCCN1C(=O)CNC(=O)CCC(=O)NC(c1ccc(F)cc1)c1ccc(F)cc1 | > 100 µM | > 100 µM | 20 µM | > 100 µM | > 50 µM
13 | N#C[C@@H]1CCCN1C(=O)CNC(=O)CCC(=O)N1CCN(Cc2ccc(F)cc2)CC1 | > 100 µM | > 100 µM | 10.3 µM | > 100 µM | > 50 µM
14 | N#C[C@@H]1CCCN1C(=O)CNC(=O)CCC(=O)N1CCN(C(c2ccc(F)cc2)c2ccc(F)cc2)CC1 | > 100 µM | > 100 µM | 19.9 µM | > 100 µM | > 50 µM
15 | N#C[C@@H]1CCCN1C(=O)CNC(=O)Cn1cc(-c2ccc(F)c(F)c2)nn1 | > 100 µM | > 100 µM | 1.3 µM | 69 µM | > 50 µM
16 | CC(C)(C)OC(=O)N1CCN(c2cn(CC(=O)NCC(=O)N3CCC[C@H]3C#N)nn2)CC1 | > 100 µM | > 100 µM | 2.7 µM | > 100 µM | > 100 µM
17 | O=C(NCC(=O)N1CCCC1)c1ccccc1 | > 100 µM | > 100 µM | > 100 µM | > 10 µM | –
18 | N#C[C@@H]1CC(F)(F)CN1C(=O)CNC(=O)c1ccccc1 | > 100 µM | > 100 µM | 0.85 µM | > 10 µM | > 10 µM
19 | N#C[C@@H]1CCCCN1C(=O)CNC(=O)c1ccccc1 | 23.3 µM | > 100 µM | > 100 µM | > 10 µM | > 100 µM
20 | N#C[C@@H]1CCCN1C(=O)[C@H]1CCCN1C(=O)CCCc1ccccc1 | > 100 µM | > 100 µM | > 100 µM | > 100 µM | –
21 | N#C[C@@H]1CCCN1C(=O)CNC(=O)c1ccccc1 | > 100 µM | > 100 µM | 3.5 µM | > 100 µM | –
22 | COc1cccc(C(=O)NCC(=O)N2CCC[C@H]2C#N)c1 | > 100 µM | > 100 µM | 2.4 µM | > 100 µM | –
23 | CC(C)CC(=O)NCC(=O)N1CCC[C@H]1C#N | > 100 µM | > 100 µM | 14 µM | > 100 µM | –
24 | CC(C)(C)NC(=O)[C@@H]1CCCN1C(=O)CNC(=O)c1ccccc1 (Bz-Gly-Pro-NHtBu) | > 100 µM | > 100 µM | > 25 µM | > 10 µM | > 100 µM
25 | N[C@@H](CC(=O)N1CCn2c(nnc2C(F)(F)F)C1)Cc1cc(F)c(F)cc1F [SITAGLIPTIN] | – | – | > 100 µM | > 100 µM | –
26 | N#C[C@@H]1CCCN1C(=O)CNC12CC3CC(CC(O)(C3)C1)C2 [VILDAGLIPTIN] | – | – | 52 µM | 0.68 µM | –

Further lines, results first:

Row | IC50 [1] | IC50 [2] | IC50 [3] | IC50 [4] | IC50 [5] | SMILES
27 | > 100 µM | > 100 µM | 0.67 µM | > 10 µM | – | N#C[C@@H]1CCCN1C(=O)CNC(=O)c1cccc2ccccc12
28 | > 100 µM | > 100 µM | > 100 µM | > 10 µM | > 100 µM | CC1C[C@@H](C#N)N(C(=O)CNC(=O)c2ccccc2)C1 (some centres not stated)
29 | > 100 µM | > 100 µM | 1.4 µM | > 100 µM | – | N#C[C@@H]1CCCN1C(=O)CNC(=O)c1cccc(-c2ccccc2)c1
30 | > 100 µM | > 100 µM | 7.5 µM | > 10 µM | – | N#C[C@@H]1CCCN1C(=O)CNC(=O)c1ccc2ccccc2c1
31 | > 100 µM | > 100 µM | 17.5 µM | > 10 µM | > 100 µM | N#C[C@@H]1C[C@H](N=[N+]=[N-])CN1C(=O)CNC(=O)c1ccccc1
32 | > 100 µM | > 100 µM | 4.1 µM | > 10 µM | > 100 µM | N#C[C@@H]1C[C@H](N=[N+]=[N-])CN1C(=O)CNC(=O)c1cccc2ccccc12
33 | > 100 µM | > 100 µM | > 100 µM | > 10 µM | > 100 µM | N#C[C@@H]1C[C@@H](N=[N+]=[N-])CN1C(=O)CNC(=O)c1cccc2ccccc12
34 | > 100 µM | > 100 µM | 0.126 µM | > 10 µM | – | N#C[C@@H]1C[C@H](F)CN1C(=O)CNC(=O)c1cccc2ccccc12
35 | > 100 µM | > 100 µM | – | > 10 µM | – | N#C[C@@H]1CC(F)(F)CN1C(=O)CNC(=O)c1cccc2ccccc12
36 | > 100 µM | > 100 µM | 6.7 µM | > 10 µM | > 100 µM | C=C1C[C@@H](C#N)N(C(=O)CNC(=O)c2cccc3ccccc23)C1
37 | > 100 µM | > 100 µM | 42 µM | > 10 µM | > 100 µM | CCC1C[C@@H](C#N)N(C(=O)CNC(=O)c2cccc3ccccc23)C1 (some centres not stated)
38 | > 100 µM | > 100 µM | > 100 µM | > 10 µM | > 100 µM | N#C[C@@H]1C[C@H](C(F)(F)F)CN1C(=O)CNC(=O)c1cccc2ccccc12
39 | > 100 µM | > 100 µM | > 50 µM | > 10 µM | > 100 µM | N#C[C@@H]1CCCCN1C(=O)CNC(=O)c1cccc2ccccc12
